# Test results from patent publication EP1140904B1, “FARNESYL PROTEIN TRANSFERASE INHIBITORS” (SCHERING CORPORATION, priority 1998, dated 2000).
# pIC50: −log10 of the molar value. Read-outs that look alike come from different tables or passages of the source.
# How the values were obtained:
# Human tumor cells = assay: Soft Agar Assay (anchorage-independent growth, colony count after MTT staining); assay type: cell-based
# Procedure: Anchorage-independent growth is a characteristic of tumorigenic cell lines. Human tumor cells can be suspended in growth medium containing 0.3% agarose and an indicated concentration of a farnesyl transferase inhibitor. The solution can be overlayed onto growth medium solidified with 0.6% agarose containing the same concentration of farnesyl transferase inhibitor as the top layer. After the top layer is solidified, plates can be incubated for 10-16 days at 37°C under 5% CO2 to allow colony outgrowth. After incubation, the colonies can be stained by overlaying the agar with a solution of MTT (3-[4,5-dimethyl-thiazol-2-yl]-2,5-diphenyltetrazolium bromide, Thiazolyl blue) (1 mg/mL in PBS). Colonies can be counted and the IC50's can be determined.
# [1] = target: farnesyl protein transferase (Homo sapiens, UniProt P49354+P49356); assay: FPT IC50 (inhibition of farnesyl protein transferase, in vitro enzyme assay); assay type: biochemical; settings: procedures of WO 95/10516
# Procedure: FPT IC50 (inhibition of farnesyl protein transferase, in vitro enzyme assay) was determined following the assay procedures described in WO 95/10516, published April 20, 1995. GGPT IC50 (inhibition of geranylgeranyl protein transferase, in vitro enzyme assay), Cell Mat Assay, COS Cell IC50 (Cell-Based Assay), and anti-tumor activity (in vivo anti-tumor studies) could be determined by the assay procedures described in WO 95/10516. The disclosure of WO 95/10516 is incorporated herein by reference thereto.
# [2] = colony outgrowth 10-16 days at 37°C under 5% CO2, read-out: Soft Agar IC50
pIC50 (Human tumor cells; [2]),pIC50 [1],Compound,pIC50 (Human tumor cells; read-out: Soft Agar IC50)
7.52 to 9.30,–,CC(C)OC(=O)N1CCN(C2c3ccc(Cl)cc3CCc3cc(Br)cnc32)CC1C(=O)N1CCCC(Cn2ccnc2)C1 (stereo not drawn) [Example 14],–
7.52 to 9.30,–,CC(C)NC(=O)N1CCN([C@@H]2c3ccc(Cl)cc3CCc3cc(Br)cnc32)C[C@@H]1C(=O)N1CCC[C@@H](Cn2ccnc2)C1 [Example 17],–
7.52 to 9.30,–,CC(C)OC(=O)N1CCN([C@@H]2c3ccc(Cl)cc3CCc3cc(Br)cnc32)C[C@@H]1C(=O)N1CCC[C@H](Cn2ccnc2)C1 [Example 19],–
7.52 to 10.30,8.57 to 10.40,Cc1cn(CC2CCCN(C(=O)C3CN(C4c5ccc(Cl)cc5CCc5cc(Br)cnc54)CCN3C(=O)Cc3ccc(F)cc3)C2)cn1 (stereo not drawn) [Example 197],–
7.52 to 10.30,8.57 to 10.40,Cc1cn(CC2CCCN(C(=O)C3CN(C4c5ccc(Cl)cc5CCc5cccnc54)CCN3C(=O)OCC(C)(C)C)C2)cn1 (stereo not drawn) [Example 411],–

# Second part, the compound before the results:
Compound,pIC50 (Human tumor cells; [2]),pIC50 [1],pIC50 (Human tumor cells; read-out: Soft Agar IC50)
CC(C)(C)OC(=O)N1CCN(C2c3ccc(Cl)cc3CCc3cc(Br)cnc32)CC1C(=O)N1CCCC(Cn2ccnc2)C1 (stereo not drawn) [Example 10],7.52 to 9.30,–,–
O=C(C1CN(C2c3ccc(Cl)cc3CCc3cc(Br)cnc32)CCN1C(=O)OC1CCCCC1)N1CCCC(Cn2ccnc2)C1 (stereo not drawn) [Example 15],7.52 to 9.30,–,–
CC(C)(C)NC(=O)N1CCN(C2c3ccc(Cl)cc3CCc3cc(Br)cnc32)CC1C(=O)N1CCCC(Cn2ccnc2)C1 (stereo not drawn) [Example 16],7.52 to 9.30,–,–
CC(C)(C)NC(=O)N1CCN([C@@H]2c3ccc(Cl)cc3CCc3cc(Br)cnc32)C[C@@H]1C(=O)N1CCC[C@H](Cn2ccnc2)C1 [Example 18],7.52 to 9.30,–,–
"CC(C)(C)OC(=O)N1CCN(C2c3ccc(Cl)cc3CCc3cc(Br)cnc32)C[C@@H]1C(=O)N1CCCCC1CCn1ccnc1 (stereo partly drawn) [Example 74, 1,1-DIMETHYLETHYL-4-(3-BROMO-8-CHLORO-6,11-DIHYDRO-5H-BENZO[5,6]CYCLOHEPTA[1,2-b]PYRIDIN-11-YL)-2(R)-[[2-[2-(1H-IMIDAZOL-1-YL)ETHYL]-1-PIPERIDINYL]CARBONYL]-1-PIPERAZINECARBOXYLATE]",–,8.57 to 10.40,7.52 to 9.30
"CC(C)(C)OC(=O)N1CCN([C@H]2c3ccc(Cl)cc3CCc3cc(Br)cnc32)C[C@@H]1C(=O)N1CCCCC1CCn1ccnc1 (stereo partly drawn) [Example 138, 1,1-DIMETHYLETHYL 4-(3-BROMO-8-CHLORO-6,11-DIHYDRO-5H-BENZO[5,6]CYCLOHEPTA[1,2-b]PYRIDIN-11(S)-YL)-2(R)-[[2-[2-(1H-IMIDAZOL-1-YL)ETHYL]-1-PIPERIDINYL]CARBONYL]-1-PIPERAZINECARBOXYLATE]",–,8.57 to 10.40,7.52 to 9.30
"CC(C)(C)OC(=O)N1CCN(C2c3ccc(Cl)cc3CCc3cc(Br)cnc32)C[C@@H]1C(=O)N1CCCCC1CCCn1ccnc1 (stereo partly drawn) [Example 145, 1,1-DIMETHYLETHYL 4-(3-BROMO-8-CHLORO-6,11-DIHYDRO-5H-BENZO[5,6]CYCLOHEPTA[1,2-b]PYRIDIN-11-YL)-2(R)-[[2-[3-(1H-IMIDAZOL-1-YL)PROPYL]-1-PIPERIDINYL]CARBONYL]-1-PIPERAZINECARBOXYLATE]",–,8.57 to 10.40,7.52 to 9.30
Cc1cn(CC2CCCN(C(=O)C3CN(C4c5ccc(Cl)cc5CCc5ccc[n+]([O-])c54)CCN3C(=O)OC3CCCCC3)C2)cn1 (stereo not drawn) [Example 387],7.52 to 10.30,8.57 to 10.40,–
Cc1cn(C[C@@H]2CCCN(C(=O)[C@H]3CN(C4c5ccccc5CCc5ccccc54)CCN3C(=O)OC3CCCCC3)C2)cn1 [Example 414],7.52 to 10.30,8.57 to 10.40,–
